From US20230039987A1, “GEL COMPOSITIONS, SYSTEMS, AND METHODS” (Boston Scientific Scimed, Inc., priority 2021, published 2023)

System: NIH 3T3 fibroblasts
Details: read-out: IC50 (cytotoxicity); 24 hours, MTS
Protocol: In vitro cytotoxicity of the photoinitiator and the gel were tested using NIH 3T3 fibroblasts cultured in Dulbecco's Modified Eagle's Medium (DMEM) containing 10% fetal bovine serum and 1% penicillin-streptomycin. Cells were seeded in either 96 well plates or 12 well plates at a density of 2,500 cells/well or 25,000 cells/well, respectively, and allowed to adhere overnight. Photoinitiator solutions and the gel solution were sterile filtered using a 0.22 um filter prior to testing in vitro. The gel solution was then gelled within the biosafety cabinet using the 150 W halogen lamp and co-cultured with the cells utilizing a 3 μm pore size transwell insert. Cells were incubated with treatments for 24 hours and then viability was measured using an MTS (3-(4,5-dimethyltriazol-2-yl)-5-(3-carboxymethoxyphenyl)-2-(4-sulfophenyl)-2H-tratrazolium, inner salt) assay (CellTiter 96® AQueous One, Promega). Cell viabilities were normalized to control untreated cells.

SMILES: O=C(O)c1ccccc1-c1c2cc(Br)c(=O)c(Br)c-2oc2c(Br)c(O)c(Br)cc12 [photoinitiator, Eosin Y]
- IC50: ~223 µM
